Consider five compounds from PMC7756782, “Rational Design of Azastatin as a Potential ADC Payload with Reduced Bystander Killing” (Chemmedchem, 2020).

Where a name gives a salt, the structure may show the parent alone. Non-standard residues stand in square brackets, D forms with d. Residues, ends and D or L forms follow the SMILES beside them. Dolaproine = CO[C@@H]([C@@H]1CCCN1)[C@@H](C)C(=O)O; Dil = CC[C@H](C)[C@H](NC)[C@@H](CC(=O)O)OC; NMeV = CN[C@H](C(=O)O)C(C)C

One may read the IC50 as the midpoint of a concentration-inhibition curve.

The subject of one assay is HepG2 cells. The assay is described as follows: cells. The format is cell-based, human. Particulars: FMCA, 72 h incubation, 37 °C, 384-well, 1000 cells/well, mean and 95 % confidence interval, three independent experiments. The method, then:
(§1) Three fundamentally different cell lines were chosen for the assessment of cytotoxicity: HepG2 cells, which derive from a human hepatoblastoma; ^[43] HCT116 cells, a common model for the study of metastatic colorectal carcinoma;[ ^44 , ^45 ] and RPMI 8226 cells, which originate from multiple myeloma. ^[46]
(§2) The cells, upon overnight cultivation, were treated with MMAE (5), MMAF (6), azastatin‐OMe (7), N‐ethyl azastatin‐OMe (28), N‐Cbz azastatin‐OMe (27) or doxorubicin[ ^47 , ^48 ] at concentrations ranging from 100 μM to 10 pM and after 72 hours of incubation, the survival index relative to control was determined by The Fluorometric Microculture Cytotoxicity Assay (FMCA). ^[49] Based upon the concentration dependent proportion of surviving cells, the half maximal inhibitory concentration (IC50) of each compound was calculated (see Table 1).
(§3) MMAE and MMAF were purchased from Combi‐Blocks (US). Doxorubicin hydrochloride was obtained from Sigma‐Aldrich/Merck (Germany). HepG2 cells (human hepatocellular carcinoma cells, ATCC), were grown in Eagle's Minimum Essential Medium (ATCC). RPMI 8226 (multiple myeloma cells, ATCC) were grown in complete RPMI medium (ATCC). HCT116 cells (colon carcinoma cells, Anticancer Inc.) were cultured in McCoy′s 5 A Modified Medium (Sigma‐Aldrich). All media were supplemented with 10 % foetal bovine serum, penicillin/streptomycin (100 U/100 μg/mL) and 2 mM L‐glutamine. Cells were seeded in 384‐well assay plates at a density of 1000 cells/well. The cells were incubated over night at 37 °C and test compounds were added, followed incubation for an additional 72 h at 37 °C. The fraction of surviving cells was analysed by a fluorometric microculture cytotoxicity assay, based on hydrolysis of fluorescein diacetate to fluorescein by cells with intact plasma membranes, as recently described. ^[49] IC50‐values were calculated from three independent experiments (see SI, mean±SEM). All tested concentrations were assessed in multiple wells (n=2‐4) in each experiment. The IC50‐values were determined with nonlinear regression analysis using GraphPad Prism 8 Software Package (US).

The test system of a further assay is HCT116 cells. The assay is described as follows: cells. The class given is cell-based. Particulars: FMCA, 72 h incubation, 37 °C, 384-well, 1000 cells/well, mean and 95 % confidence interval, three independent experiments. The method, then: as §1, §2, §3
A further assay has as its system RPMI 8226 cells. The assay can be described thus: cells. The class given is cell-based. Particulars: FMCA, 72 h incubation, 37 °C, 384-well, 1000 cells/well, mean and 95 % confidence interval, three independent experiments. The method, then: as §1, §2, §3
In assay [1] the test system is HepG2, HCT116 and RPMI 8226 cells. The assay is described as follows: FMCA cytotoxicity, span over all three tested cell lines. The class given is cell-based. Particulars: 72 h; for IC50: lowest to highest mean IC50 in HepG2, HCT116, RPMI 8226, read-out: IC50 range over the three cell lines. The method, then: as §1, §2, §3

Consider `CC[C@H](C)[C@@H]([C@@H](CC(=O)N1C[C@@H](N)C[C@H]1[C@H](OC)[C@@H](C)C(=O)N[C@@H](Cc1ccccc1)C(=O)OC)OC)N(C)C(=O)[C@@H](NC(=O)[C@H](C(C)C)N(C)C)C(C)C` [Aza‐OMe, 7, Azastatin methyl ester], for which the IC50 in the assay on HepG2 cells was 0.02 µM; in the assay on HCT116 cells it was 0.17 µM; with RPMI 8226 cells, 0.0098 µM; in assay [1] it was 0.0098 to 0.17 µM.
In the same order, the values of `CC[C@H](C)[C@@H]([C@@H](CC(=O)N1C[C@@H](NC(=O)OCc2ccccc2)C[C@H]1[C@H](OC)[C@@H](C)C(=O)N[C@@H](Cc1ccccc1)C(=O)OC)OC)N(C)C(=O)[C@@H](NC(=O)[C@H](C(C)C)N(C)C)C(C)C` [Cbz‐Aza‐OMe, 27, Cbz‐azastatin methyl ester] are 0.00013 µM, 0.003 µM, 0.00015 µM and 0.00013 to 0.003 µM.
Consider `COc1cccc2c1C(=O)c1c(O)c3c(c(O)c1C2=O)C[C@@](O)(C(=O)CO)C[C@@H]3O[C@H]1C[C@H](N)[C@H](O)[C@H](C)O1` [Doxorubicin, Doxorubicin hydrochloride, reference compound], for which the IC50 in the assay on HepG2 cells (Homo sapiens, HepG2) turned out to be 0.4 µM; with HCT116 cells (Homo sapiens, HCT-116), 0.44 µM; in the assay with RPMI 8226 cells (Homo sapiens, RPMI-8226), 0.049 µM.
On to `CC[C@H](C)[C@@H]([C@@H](CC(=O)N1CCC[C@H]1[C@H](OC)[C@@H](C)C(=O)N[C@@H](Cc1ccccc1)C(=O)O)OC)N(C)C(=O)[C@@H](NC(=O)[C@@H](NC)C(C)C)C(C)C` [MMAF, 6, monomethylauristatin F, reference compound] (H-[NMeV]V[Dil][Dolaproine]F-OH), for which, in assay [1] (ratio of IC50 values), the “fold less potent than MMAE (5) in each of the cell lines” value is on record as “more than 100 fold”.
On to `CCN[C@H]1C[C@@H]([C@H](OC)[C@@H](C)C(=O)N[C@@H](Cc2ccccc2)C(=O)OC)N(C(=O)C[C@@H](OC)[C@H]([C@@H](C)CC)N(C)C(=O)[C@@H](NC(=O)[C@H](C(C)C)N(C)C)C(C)C)C1` [N‐Et Aza‐OMe, 28, N‐ethyl azastatin methyl ester], for which the IC50 with HepG2 cells is 0.011 µM; in the assay on HCT116 cells it was 0.1 µM; in the assay with RPMI 8226 cells, 0.0048 µM; in assay [1], 0.0048 to 0.1 µM.
